We go through two compounds from publication PMC3048469 (FEBS letters, 2011).

The target of this assay is Rv1086 (Mycobacterium tuberculosis, UniProt P9WFF5). The assay is classed as biochemical. Conditions: 5 mM MgCl2, pH 7.0, 37 °C.

Where two headings read alike, the source gives them in different places.

Sequence of Rv1086 (P9WFF5 whole entry): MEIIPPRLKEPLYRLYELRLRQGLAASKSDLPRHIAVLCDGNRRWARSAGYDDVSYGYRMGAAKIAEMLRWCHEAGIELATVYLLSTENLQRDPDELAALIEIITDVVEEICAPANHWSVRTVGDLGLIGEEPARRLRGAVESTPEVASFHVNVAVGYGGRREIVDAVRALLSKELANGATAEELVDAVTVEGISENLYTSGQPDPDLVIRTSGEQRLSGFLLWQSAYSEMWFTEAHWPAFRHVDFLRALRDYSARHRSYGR

For the compound `CC(C)=CCC/C(C)=C/COP(=O)(O)OP(=O)(O)O` [GPP], for the setting “100 μM GPP, co-substrate IPP”, the “GC-MS of dephosphorylated product” value is given as “Rv1086 assayed in the presence of authentic GPP, GPP synthesized by Rv0989c, or DMAPP”.

As to `CC(C)=CCOP(=O)(O)OP(=O)(O)O` [DMAPP], under “100 μM DMAPP, 100 μM IPP, 0.3% Triton X-100”, the “GC-MS of dephosphorylated product” value is “(Z,E)-FPP also was produced by Rv1086 from IPP and DMAPP in the absence of Rv0989”.
